From patent US6710165B2, “IgE-dependent histamine-releasing factor-binding peptides” (priority 2000, dated 2004)

Key:
RBL-2H3 cells = experiment: Inhibition of histamine release by HRF (RIA); assay type: cell-based; details: for effect on histamine release by HRF: peptide 20 μg/ml, HRF 20 μg/ml
Protocol: The full-length rat HRF sequence (Chitpatima, et al., 1988) amplified by PCR was cloned in pRSET-A vector and overexpressed in E. coli. The expressed recombinant protein was purified by His-bound Ni column (Novagen) and used for the stimulation of RBL-2H3 cells. RBL-2H3 cells were grown in 24-well plate at 1×10^6 cells, sensitized with rat IgE antibodies (0.2 μg/ml, Serotec) for 45˜60 minutes and then, treated with 20 μg/ml of the recombinant HRF protein (positive control). The cells as prepared above were dose-dependently treated with heptamer peptides p1 and p2. Also, they were treated with the recombinant HRF protein and peptides p1, p2, p4 and m1 to m7 at the same concentration as that of HRF, i.e. 20 μg/ml, respectively,
The obtained sample was prepared to acylated histamine using RIA-analysis kit (Immunotech, France) and then, competitively bound to ^125I-acylated histamine and monoclonal antibodies. This sample was reanalyzed in γ-counter.

malaria protein HRF = malaria protein HRF (Plasmodium falciparum, UniProt Q8I3Z5); details: cited from earlier work
Chain of malaria protein HRF (Q8I3Z5 whole entry): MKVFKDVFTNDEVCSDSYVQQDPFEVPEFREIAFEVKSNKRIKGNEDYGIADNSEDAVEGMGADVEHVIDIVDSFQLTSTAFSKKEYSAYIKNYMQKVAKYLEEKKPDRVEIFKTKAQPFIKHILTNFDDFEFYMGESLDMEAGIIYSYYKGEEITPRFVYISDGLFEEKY

HRF = molecular target: T1, HRF (Rattus norvegicus, UniProt P63029); experiment: Competition binding assay of synthetic peptides against phage clones; details: for binding site on HRF, competitive binding analysis on ph2: competition with ph2; for competition of synthetic peptide with phage clones for HRF: peptide 0.001-1000 nM, phage 1/25-fold diluted
T1 construct: His tag (pRSET-A); made in house; host or cells: E. coli
T1 sequence (P63029 1-172): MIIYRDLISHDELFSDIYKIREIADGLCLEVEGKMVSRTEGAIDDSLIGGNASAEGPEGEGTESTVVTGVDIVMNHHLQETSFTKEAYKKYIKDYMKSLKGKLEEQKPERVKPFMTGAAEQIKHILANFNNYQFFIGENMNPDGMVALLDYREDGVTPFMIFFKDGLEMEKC
Protocol: Also, as a negative control, random peptide (ran, amino acid sequence: LMEGCRA) was synthesized. To the wells coated with HRF was added each 30 μl of the peptide solution serially diluted in 6% BSA/PBS from 1000 nM (1000, 100, 10, 1, 0.1, 0.01, 0.001 nM) and the solution was allowed to stand at room temperature for 30 minutes. The 1/25-fold diluted phage solution was added thereto and the whole solution was further allowed to stand for 2 hours. The solution was washed five times with PBST and then, each 100 μl of HRP-conjugated anti-M13 antibodies were added thereto and then, the resulting mixture was allowed to stand for 1 hour. The mixture was washed 6 times with PBST and once with PBS, and thereto was added each 100 μl of peroxydase substrate solution to examine the competition.
b) In order to test whether or not p1, p2 and p4 bind to the identical site on HRF, the wells were coated with HRF according to the substantially same procedure as in the above a).

PC12 cells = experiment: Inhibition of HRF-stimulated dopamine release by HRF-binding peptide; assay type: cell-based; details: 60 μg/ml of p2, 15 μg/ml of HRF
Protocol: In order to confirm whether the peptides blocking histamine release by HRF also block neurotransmitters release in nerve cells, the peptide of SEQ ID No. 14 (p2) was tested for its effects on dopamine release stimulated by HRF according to the substantially same procedure as in Example 16.

Molecule | effect on histamine release by HRF (RBL-2H3 cells) | also measured
WYAYPSM (OTHER INFORMATION: IgE-dependent histamine-releasi ng factor binding peptide) [m3, p2 variant, alanine substitution] | inhibited histamine release by HRF | 
C[C@@H]1CC[C@H]2[C@@H](C)C(=O)O[C@@H]3O[C@@]4(C)CC[C@@H]1[C@]32OO4 [Artemisinin] |  | binding to malaria protein HRF (malaria protein HRF): binds to malaria protein HRF
WYVAPSM (OTHER INFORMATION: IgE-dependent histamine-releasi ng factor binding peptide) [m4, p2 variant, alanine substitution] | inhibited histamine release by HRF | 
WAVYPSM (OTHER INFORMATION: IgE-dependent histamine-releasi ng factor binding peptide) [m2, p2 variant, alanine substitution] | inhibited histamine release by HRF | 
WYVYPAM (OTHER INFORMATION: IgE-dependent histamine rele asing factor binding peptide) [m6, p2 variant, alanine substitution] | conversely stimulated histamine release | 
WEFPGWM (OTHER INFORMATION: IgE-dependent histamine-releasi ng factor binding peptide) [p4] | inhibited histamine release by HRF | binding site on HRF, competitive binding analysis on ph2 (HRF): bound to the identical site on HRF; competition of synthetic peptide with phage clones for HRF (HRF): bind to HRF competitively with phage clones ph2 and ph4
WYVYKSM (OTHER INFORMATION: IgE-dependent histamine-releasi ng factor binding peptide) [m5, p2 variant, substituted with Lysine (K)] | inhibited histamine release by HRF | 
AYVYPSM (OTHER INFORMATION: IgE-dependent histamine-releasi ng factor binding peptide) [m1, p2 variant, alanine substitution] | inhibited histamine release by HRF | 
LVTYPLP (OTHER INFORMATION: IgE-dependent histamine-releasi ng factor binding peptide) [p1] | inhibited histamine release by HRF | binding site on HRF, competitive binding analysis on ph2 (HRF): bound to the identical site on HRF
WYVYPSM (OTHER INFORMATION: IgE-dependent histamine-releasi ng factor binding peptide) [p2] | inhibited histamine release by HRF | binding site on HRF, competitive binding analysis on ph2 (HRF): bound to the identical site on HRF; competition of synthetic peptide with phage clones for HRF (HRF): bind to HRF competitively with phage clones ph2 and ph4; peptide concentration that inhibited histamine release (RBL-2H3 cells; dose-response, 20 μg/ml HRF): ≥ 0.01 µg/mL; inhibition of HRF-increased dopamine release (PC12 cells): about 60%
WYVYPSA [m7, p2 variant, alanine substitution] | inhibited histamine release by HRF | 
